The nature of the data set: GHS categories as the set defines them, by LD50: 1 up to 5, 2 up to 50, 3 up to 300, 4 up to 2000, 5 above 2000 mg/kg. The note with it: rat; in vivo; po.

With `FC(F)(F)c1cccc(-n2nc(OCCN3CCCCCC3)c3cccnc32)c1`, the GHS category was 4.
The figure for `O=CC(O)C(O)C(O)C(O)COC1OC(CO)C(O)C(O)C1O` (centres undefined) is 4.
`CC(C)(C=O)CN1CCOCC1` had a GHS category of 5.
`Cc1ccc(C2=NCOCS2)cc1` yielded a GHS category of 4.
Compound `C=COC(=O)CCCCC(C)(C)C` returned a GHS category of 5.
`CC(=O)OC1CC[C@H]2[C@@H]3CC[C@H]4CC(=O)C=C(C)[C@]4(C)[C@H]3CC[C@]12C` (some centres undefined): the GHS category is on record as 5.
In the case of `CN(C)C(=O)c1cc(C(=O)N(C)C)c2c(n1)C(=O)C(=O)c1cc(C(=O)N(C)C)[nH]c1-2`, the GHS category is 5.
The compound `CN(c1ccccc1)S(=O)(=O)c1cc(O)c2c(N=Nc3ccc(NC(=O)CCl)cc3S(=O)(=O)O)c(N)ccc2c1` showed a GHS category of 5.
Next, `O=[N+]([O-])c1ccc(C=NOCc2cccc([N+](=O)[O-])c2)cc1`: 4; `COC(=O)C(CCn1cnc2c(Cl)nc(N)nc21)C(=O)OC`: 5; `OCC1CN2CCN1CC2` (centres undefined): 5.
In turn, `CCOC(=O)C(=O)Nc1cc(OCCOCc2ccccc2)nc(C)n1` had a GHS category of 4.
As for `C[Si](C)(C)O[Si](C)(C)C`, the GHS category is reported as 5.
The figure for `CC(=CCc1c(O)c(Cl)c(C)c(C=O)c1O)CCC=C(C)[C@@H]1CC(=O)C(C)(C)O1` is 5.
On to `Brc1ccc(CNC2=NCCS2)cc1`, for which the GHS category worked out at 3.
Compound `CNc1ncnc2c1ncn2Cc1ccccc1F` came in with a GHS category of 4.
`CC(C)(C1CCCO1)C1CCCO1` (centres undefined) gave a GHS category of 4.
In the case of `COc1ccc(-c2ccc(C#N)cc2)cc1`, the GHS category is on record as 5.
Consider `CCCC(=O)c1ccc2[nH]c(=O)oc2c1`, for which the GHS category amounted to 5.
`C=C(c1ccccc1)c1ccccc1`: the GHS category came to 5.
In turn, `CC1=C(C(=O)O)N2C(=O)[C@@H](NC(=O)[C@H](N)c3ccc(O)cc3)[C@H]2SC1` returned a GHS category of 5.
Next, `CCOC(=O)C(C)(C)c1ccccc1`: 5.
The compound `CCCc1c(Cc2ccc(-c3ccccc3-c3nn[nH]n3)cc2)c(=O)nc2nc(CC)[nH]n12` showed a GHS category of 4.
For `CC(C)=CCCC(C)C=O` (centres undefined), the GHS category is 5.
On to `CC(C)(c1ccccc1)c1ccc(Nc2ccc(C(C)(C)c3ccccc3)cc2)cc1`, for which the GHS category is recorded as 5.
Regarding `CS(=O)(=O)c1ccc(C(=O)C2C(=O)CCCC2=O)c([N+](=O)[O-])c1`, the GHS category amounted to 5.
For `O=C(CCCN1CCC2(CC1)C(=O)NCN2c1ccccc1)c1ccc(F)cc1`, the GHS category turned out to be 4.
`CC12CCC3c4ccc(OC(=O)c5ccccc5)cc4CCC3C1CCC2OC(=O)COC(=O)CCCc1ccc(N(CCCl)CCCl)cc1` (centres undefined) displayed a GHS category of 5.
`N#Cc1c(Cl)nc(Cl)c(C#N)c1-c1ccccc1` registered a GHS category of 5.
`CC[N+](CC)(CC)CCOc1cccc(OCC[N+](CC)(CC)CC)c1OCC[N+](CC)(CC)CC`: the GHS category was determined as 4.
On to `CNCC1CCC(N)C(OC2C(N)CC(N)C(OC3OCC(C)(O)C(NC)C3O)C2O)O1` (centres undefined), for which the GHS category amounted to 5.
Next, `CC1CC(OC(=O)COc2ccc(I)cc2)CC(C)(C)C1` (centres undefined): 5; `CO[C@]1(C)CC[C@@]23C[C@@H]1C(C)(C)[C@@H]2CC[C@H]3C`: 5.
Consider `Nc1c(Br)cc([N+](=O)[O-])cc1Br`, for which the GHS category is reported as 4.
On to `CC(C)(CCn1c(=O)[nH]c2ccccc21)NCC(O)COc1cccc2ccccc12` (centres undefined), for which the GHS category came to 5.
`C=CC1=C(C(=O)O)N2C(=O)[C@@H](NC(=O)/C(=N\O)c3csc(N)n3)[C@H]2SC1` came in with a GHS category of 5.
In turn, `CC1CC(OC(=O)C(Oc2ccccc2Cl)C(C)C)CC(C)(C)C1` (centres undefined) gave a GHS category of 5.
`Cc1ccccc1OP(Oc1ccccc1C)Oc1ccccc1C`: the GHS category amounted to 4.
Take `CCCCCC(O)CCO` (centres undefined): the GHS category is given as 5.
Take `CCO[Si](CC(C)CC(C)(C)C)(OCC)OCC` (centres undefined): the GHS category is listed as 5.
`CCS(=O)c1c(C#N)nn(-c2c(Cl)cc(C(F)(F)F)cc2Cl)c1N` (centres undefined) came in with a GHS category of 5.
Next, `O=C1CC(=O)NC(=O)N1`: 5; `CN[C@@H]1[C@@H](O)[C@@H](O[C@@H]2[C@@H](O)[C@H](OC3OC(CN)=CCC3N)[C@@H](N)C[C@H]2N)OC[C@]1(C)O` (some centres undefined): 5; `CC(=O)NCCCOc1ccc(C(=O)N2CCC(N3C(=O)CCc4ccccc43)CC2)cc1`: 5.
Regarding `CCC(=O)/C=C/C=C(\C)CCC=C(C)C`, the GHS category was 5.
The figure for `Cc1cc(O)c(C)c2c1OC(C)(CCCC(C)CCCC(C)CCCC(C)C)CC2` (racemic) is 5; for `CC(=O)Nc1ccc(Cc2ccccn2)c([N+](=O)[O-])c1` it is 3; for `CC(C)(C)c1ccc2oc(-c3ccc(-c4nc5cc(C(C)(C)C)ccc5o4)s3)nc2c1` it is 5.
`COC(=O)CC(N)=S` displayed a GHS category of 4.
Next, `CO[C@H]1C[C@H](O[C@H]2[C@H](C)[C@@H](O[C@@H]3O[C@H](C)C[C@H](N(C)C)[C@H]3O)[C@H](C)C[C@@]3(CO3)C(=O)[C@H](C)[C@@H](O)[C@@H](C)[C@@H](C)OC(=O)[C@@H]2C)O[C@@H](C)[C@@H]1O`: 5; `CC(C)(C)c1ccc2oc(-c3ccc(C=Cc4ccc(-c5ccccc5)cc4)cc3)nc2c1`: 5.
`O=C(O)c1ccccc1N1C(=O)C(Cl)C1c1ccccc1` (centres undefined) returned a GHS category of 4.
Compound `NCCNS(=O)(=O)c1cccc2cnccc12` had a GHS category of 4.
Next, `CCCNC(=O)c1cnc2cccc(C)n2c1=O`: 3; `CC1=CC2[C@@H](C(=O)O1)C2(C)C` (some centres undefined): 5; `O=c1[nH]c2ccc([N+](=O)[O-])cc2[nH]1`: 5.
Take `CCn1cc(C(=O)O)c(=O)c2cnc(N3CCNCC3)nc21`: the GHS category worked out at 5.
Next, `CCOC(C)(C)C`: 5; `C#CCN1C(=O)COc2cc(F)c(N3C(=O)C4=C(CCCC4)C3=O)cc21`: 5.
Regarding `CC(C)c1ccc(C(C)(C)C(C)(C)c2ccc(C(C)C)cc2)cc1`, the GHS category turned out to be 5.
In turn, `CCCCCCCCCCCCCCCCCC(=O)OCC` showed a GHS category of 5.
For `COc1cccc(N(C)C(=S)Oc2ccc3c(c2)CCCC3)n1`, the GHS category was found to be 5.
For the compound `C[C@@H]1CN2CC(=O)Nc3ccc(Cl)cc3[C@]2(c2ccccc2)O1`, the GHS category was found to be 5.
For `CC1(C)S[C@@H]2[C@H](NC(=O)C(C(=O)O)c3ccccc3)C(=O)N2[C@H]1C(=O)O` (some centres undefined), the GHS category came out at 5.
The figure for `COc1ccc2c(c1)CCN(c1ccccc1)C2c1cccc(C(F)(F)F)c1` (centres undefined) is 4.
Next, `Cc1ccc(OC(N)=O)c(C(=O)Oc2ccccc2)c1`: 5; `FC(F)(F)c1nc(NC2CC2)c2ncn(CC3CC3)c2n1`: 3.
In turn, `O=c1nc2nc[nH]n2c(CO)c1Cc1ccc(-c2ccccc2-c2nn[nH]n2)cc1` yielded a GHS category of 4.
The figure for `CC/C=C\CCC1(C)CCC(=O)O1` (centres undefined) is 5.

Values taken from the CATMoS acute toxicity set (Mansouri et al. 2021).
